# Measured values taken from ChEMBL document CHEMBL4261604, “Design, synthesis and biological evaluation of novel carbamodithioates as anti-proliferative agents against human cancer cells” (Eur J Med Chem, 2018).
# Activity calls are given as the source filed them. The rule behind the calls is not given here.
# How the values were obtained:
# [1] = Stability of the compound in methanol:water (1:1) up to 12 hrs by HPLC analysis; format: physicochemical
# [2] = Stability of the compound in acetonitrile up to 12 hrs by HPLC analysis; format: physicochemical
# [3] = Drug degradation in methanol after 10 hrs at 50 degC by HPLC analysis; format: physicochemical; settings: read-out: Drug degradation
# [4] = test system: A-375; assay: Antiproliferative activity against human A375 cells assessed as inhibition of cell proliferation at 16 uM after 72 hrs by CCK8 assay; format: functional; settings: A-375, 72 h
# [5] = test system: A-375; assay: Antiproliferative activity against human A375 cells assessed as inhibition of cell proliferation at 32 uM after 72 hrs by CCK8 assay; format: functional; settings: A-375, 72 h
# [6] = test system: SMMC-7721; assay: Antiproliferative activity against human SMMC7721 cells assessed as inhibition of cell proliferation at 16 uM after 72 hrs by CCK8 assay; format: functional; settings: SMMC-7721, 72 h
# [7] = test system: SMMC-7721; assay: Antiproliferative activity against human SMMC7721 cells assessed as inhibition of cell proliferation at 32 uM after 72 hrs by CCK8 assay; format: functional; settings: SMMC-7721, 72 h
# [8] = test system: SMMC-7721; assay: Antiproliferative activity against human SMMC7721 cells after 72 hrs by CCK8 assay; format: functional, cell-based; settings: SMMC-7721, 72 h
# [9] = test system: A-375; assay: Antiproliferative activity against human A375 cells after 72 hrs by CCK8 assay; format: functional, cell-based; settings: A-375, 72 h
# [10] = test system: HeLa; assay: Antiproliferative activity against human HeLa cells after 72 hrs by CCK8 assay; format: functional, cell-based
# [11] = test system: SMMC-7721; assay: Inhibition of colony formation in human SMMC7721 cells at 2 to 8 uM after 7 days by crystal violet staining-based assay; format: functional, cell-based
# [12] = test system: SMMC-7721; assay: Induction of apoptosis in human SMMC7721 cells assessed as necrotic cells at 4 uM after 72 hrs by Alexa Fluor 488 Annexin/propidium iodide staining-based flow cytometric analysis (reference value: […]); format: functional
# [13] = test system: SMMC-7721; assay: Induction of apoptosis in human SMMC7721 cells assessed as late apoptotic cells at 4 uM after 72 hrs by Alexa Fluor 488 Annexin/propidium iodide staining-based flow cytometric analysis (reference value: 0.62%); format: functional
# [14] = test system: SMMC-7721; assay: Induction of apoptosis in human SMMC7721 cells assessed as early apoptotic cells at 4 uM after 72 hrs by Alexa Fluor 488 Annexin/propidium iodide staining-based flow cytometric analysis (reference value: 0.70%); format: functional
# [15] = test system: SMMC-7721; assay: Induction of apoptosis in human SMMC7721 cells assessed as viable cells at 4 uM after 72 hrs by Alexa Fluor 488 Annexin/propidium iodide staining-based flow cytometric analysis (reference value: 91.92%); format: functional; settings: SMMC-7721, 72 h, read-out: Activity
# [16] = test system: SMMC-7721; assay: Induction of apoptosis in human SMMC7721 cells assessed as necrotic cells at 8 uM after 72 hrs by Alexa Fluor 488 Annexin/propidium iodide staining-based flow cytometric analysis (reference value: […]); format: functional
# [17] = test system: SMMC-7721; assay: Induction of apoptosis in human SMMC7721 cells assessed as late apoptotic cells at 8 uM after 72 hrs by Alexa Fluor 488 Annexin/propidium iodide staining-based flow cytometric analysis (reference value: 0.62%); format: functional
# [18] = test system: SMMC-7721; assay: Induction of apoptosis in human SMMC7721 cells assessed as early apoptotic cells at 8 uM after 72 hrs by Alexa Fluor 488 Annexin/propidium iodide staining-based flow cytometric analysis (reference value: 0.70%); format: functional
# [19] = test system: SMMC-7721; assay: Induction of apoptosis in human SMMC7721 cells assessed as viable cells at 8 uM after 72 hrs by Alexa Fluor 488 Annexin/propidium iodide staining-based flow cytometric analysis (reference value: 91.92%); format: functional; settings: SMMC-7721, 72 h, read-out: Activity
# [20] = test system: SMMC-7721; assay: Cell cycle arrest in human SMMC7721 cells assessed as accumulation at G0/G1 phase at 4 uM after 72 hrs by RNase/propidium iodide staining-based flow cytometric analysis (reference value: 67.26%); format: functional
# [21] = test system: SMMC-7721; assay: Cell cycle arrest in human SMMC7721 cells assessed as accumulation at S phase at 4 uM after 72 hrs by RNase/propidium iodide staining-based flow cytometric analysis (reference value: 7.96%); format: functional
# [22] = test system: SMMC-7721; assay: Cell cycle arrest in human SMMC7721 cells assessed as accumulation at G2/M phase at 4 uM after 72 hrs by RNase/propidium iodide staining-based flow cytometric analysis (reference value: 24.78%); format: functional
# [23] = test system: SMMC-7721; assay: Cell cycle arrest in human SMMC7721 cells assessed as accumulation at G0/G1 phase at 8 uM after 72 hrs by RNase/propidium iodide staining-based flow cytometric analysis (reference value: 67.26%); format: functional
# [24] = test system: SMMC-7721; assay: Cell cycle arrest in human SMMC7721 cells assessed as accumulation at S phase at 8 uM after 72 hrs by RNase/propidium iodide staining-based flow cytometric analysis (reference value: 7.96%); format: functional
# [25] = test system: SMMC-7721; assay: Cell cycle arrest in human SMMC7721 cells assessed as accumulation at G2/M phase at 8 uM after 72 hrs by RNase/propidium iodide staining-based flow cytometric analysis (reference value: 24.78%); format: functional
# [26] = test system: A549; assay: cells; settings: Homo sapiens, A549, 72 h
# Description: Antiproliferative activity against human A549 cells after 72 hrs by CCK8 assay
# [27] = test system: HCT-116; assay: cells; settings: Homo sapiens, HCT-116, 72 h
# Description: Antiproliferative activity against human HCT116 cells after 72 hrs by CCK8 assay
smiles,measurement,setting,value
CC(=O)NCCSC(=S)NCCCC[S+](C)[O-] (stereo unspecified),Stability,[1],Stable
same,Stability,[2],Stable
COc1ccc(SC(=S)NCCCC[S+](C)[O-])cc1 (stereo unspecified),degraded at 10 h,[3],< 6%
same,Stability,[1],Unstable
same,Stability,[2],Unstable
COc1ccc(SC(=S)NCC/C=C/[S+](C)[O-])cc1 (stereo unspecified),degraded at 10 h,[3],25%
same,Stability,[1],Unstable
same,Stability,[2],Unstable
CC(=O)NCCSC(=S)NCC/C=C/[S+](C)[O-] (stereo unspecified),Stability,[1],Stable
same,Stability,[2],Stable
C[S+]([O-])/C=C/CCN=C=S (stereo unspecified),degraded at 10 h,[3],60%
C[S+]([O-])CCCCN=C=S (stereo unspecified) [SULFORAPHANE],inhibition at 16 µM,[4],54%
same,inhibition at 32 µM,[5],77.3%
same,inhibition at 16 µM,[6],80.5%
same,inhibition at 32 µM,[7],88.3%
same,IC50,[8],7.87 µM
same,IC50,[9],24.5 µM
same,IC50,[10],66.1 µM
same,degraded at 10 h,[3],60%
same,inhibition,[11],Active
same,Activity,[12],4.14%
same,Activity,[13],2.82%
same,Activity,[14],4.66%
same,viability at 4 µM,[15],88.4%
same,Activity,[16],9.59%
same,Activity,[17],9.09%
same,Activity,[18],14.43%
same,viability at 8 µM,[19],66.9%
same,Activity,[20],68.06%
same,Activity,[21],5.41%
same,Activity,[22],26.8%
same,Activity,[23],66.19%
same,Activity,[24],5.46%
same,Activity,[25],28.35%
same,IC50,[26],11.9 µM
same,IC50,[27],36.7 µM
